target: T1, Human full-length Hsp90 (Homo sapiens, UniProt P08238); test: Fluorescence polarization assay (competitive binding to HSP90, probe RBT0045864-FAM); details: not given
T1 construct: E. coli expressed human full-length HSP90 protein, purified >95%; made in house; host or cells: E. coli
Procedure: Fluorescence Polarization Assay
Fluorescence polarization {also known as fluorescence anisotropy} measures the rotation of a fluorescing species in solution, where the larger molecule the more polarized the fluorescence emission. When the fluorophore is excited with polarized light, the emitted light is also polarized. The molecular size is proportional to the polarization of the fluorescence emission.
The fluoroscein-labelled probe—RBT0045864-FAM—
Test compound is added to the assay plate, left to equilibrate and the anisotropy measured again. Any change in anisotropy is due to competitive binding of compound to HSP90, thereby releasing probe.
Stored at room temperature. • 3) BSA (bovine serum albumen) 10 mg/ml (New England Biolabs #B9001S) • 4) 20 mM probe in 100% DMSO stock concentration. Stored in the dark at RT. Working concentration is 200 nM diluted in AR water and stored at 4° C. […] Protocol • 1) Add 100 μl 1× buffer to wells 11A and 12A (=FP BLNK) • 2) Prepare assay mix—all reagents are kept on ice with a lid on the bucket as the probe is light-sensitive.
This gives 2.5 mM {50×} stock cpd—assuming cpds 20 mM. • 4) Repeat for wells A2 to A10. Control in columns 11 and 12. • 5) Transfer 5 μl from row A to row B—not column 12. Mix well. • 6) Transfer 5 μl from row B to row C. […] Add 2 μl of 100 mM standard cpd to wells B12-H12 {is positive control} • 13) The Z′ factor is calculated from zero controls and positive wells.

T1 sequence (P08238 whole entry): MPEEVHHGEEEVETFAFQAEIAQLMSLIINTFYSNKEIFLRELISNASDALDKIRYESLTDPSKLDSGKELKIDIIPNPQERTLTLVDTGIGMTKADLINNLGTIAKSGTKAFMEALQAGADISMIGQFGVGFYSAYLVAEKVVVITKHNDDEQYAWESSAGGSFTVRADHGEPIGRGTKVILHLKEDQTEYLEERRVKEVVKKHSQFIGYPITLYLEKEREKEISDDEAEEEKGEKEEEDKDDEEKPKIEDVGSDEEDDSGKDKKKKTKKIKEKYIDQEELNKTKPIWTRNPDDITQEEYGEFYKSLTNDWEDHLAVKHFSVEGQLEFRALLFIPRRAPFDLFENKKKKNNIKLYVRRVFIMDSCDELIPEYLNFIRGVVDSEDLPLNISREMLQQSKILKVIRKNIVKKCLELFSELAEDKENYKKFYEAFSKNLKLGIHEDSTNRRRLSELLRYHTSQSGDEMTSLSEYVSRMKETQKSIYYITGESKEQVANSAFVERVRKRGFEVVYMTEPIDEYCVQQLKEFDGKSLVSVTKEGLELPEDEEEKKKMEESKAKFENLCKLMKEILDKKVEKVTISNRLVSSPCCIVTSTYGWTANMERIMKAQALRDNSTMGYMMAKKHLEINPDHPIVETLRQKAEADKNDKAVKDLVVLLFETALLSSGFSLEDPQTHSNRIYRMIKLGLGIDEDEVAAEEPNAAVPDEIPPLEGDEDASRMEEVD

Structure (SMILES) | IC50 [µM]
CCN(CC)CCOc1cc(-c2nc(N)nc3sc(C(=O)NC4CC4)cc23)c(Cl)cc1Cl [Example 251] | < 10
CCNC(=O)c1cc2c(-c3cc(OCCN4CCC(F)(F)CC4)c(Cl)cc3Cl)nc(N)nc2s1 [Example 250] | < 10
CCNC(=O)c1cc2c(-c3ccccc3)nc(N)nc2s1 [Example 43, 2-Amino-4-phenyl-thieno[2,3-d]pyrimidine-6-carboxylic acid ethylamide] | < 10
CCNC(=O)c1cc2c(-c3ccc(Cl)cc3Cl)nc(N)nc2s1 [Example 98] | < 10

same assay, conditions: fluorescence polarization assay, activity range; read-out: Hsp90 FP IC50

IC50 [µM] | Structure (SMILES)
< 10 | CCNC(=O)c1cc2c(-c3ccc(C#N)cc3Cl)nc(N)nc2s1 [Example 172]
> 10 | CCOC(=O)c1cc2c(-c3ccc(F)cc3)nc(N)nc2s1 [Example 10]
< 10 | Nc1nc(-c2ccc(Cl)cc2Cl)c2cc(C(=O)NCCCS(=O)(=O)O)sc2n1 [Example 144]
< 10 | CCNC(=O)c1cc2c(-c3cc(CNCc4cccnc4)ccc3C)nc(N)nc2s1 [Example 217]
< 10 | CCOC(=O)c1cc2c(C#N)nc(N)nc2s1 [Example 319, 2-Amino-4-cyano-thieno[2,3-d]pyrimidine-6-carboxylic acid ethyl ester]
< 10 | Nc1nc(-c2ccc(Cl)cc2Cl)c2cc(C(=O)Nc3ccc(S(=O)(=O)O)cc3)sc2n1 [Example 112]
< 10 | COCCCNC(=O)c1cc2c(-c3ccc(Cl)cc3Cl)nc(N)nc2s1 [Example 126]
< 10 | CCOC(=O)c1cc2c(-c3cc(CNCCN4CCOCC4)ccc3C)nc(N)nc2s1 [Example 198]
> 10 | Cc1ccc(-c2nc(N)nc3sc(C(=O)N4CCOCC4)cc23)c(C)c1 [Example 96]
> 10 | CCOC(=O)c1cc2c(NC(C)c3ccccc3)nc(N)nc2s1 (centres unmarked) [Example 26]
< 10 | CCN(CC)CCOc1cc(-c2nc(N)nc3sc(C(=O)NC(CO)CO)cc23)c(Cl)cc1Cl [Example 266]
< 10 | NC(=O)CCNC(=O)c1cc2c(-c3ccc(Cl)cc3Cl)nc(N)nc2s1 [Example 131]
< 10 | CCOC(=O)c1cc2c(C(=O)c3cc(C)cc(C)c3)nc(N)nc2s1 [Example 300]
< 10 | CCOC(=O)c1cc2c(-c3ccccc3Cl)nc(N)nc2s1 [Example 9]
< 10 | CCOC(=O)c1cc2c(/C=C/c3cccc(OC)c3)nc(N)nc2s1 [Example 279]
< 10 | Nc1nc(-c2ccc(Cl)cc2Cl)c2cc(C(=O)NCCS(N)(=O)=O)sc2n1 [Example 130]
< 10 | CC(C)C[C@H](NC(=O)c1cc2c(-c3ccc(Cl)cc3Cl)nc(N)nc2s1)C(N)=O [Example 161]
< 10 | CCOC(=O)c1cc2c(-c3ccc(C#N)cc3Cl)nc(N)nc2s1 [Example 148]
< 10 | Nc1nc(-c2ccc(Cl)cc2Cl)c2cc(C(=O)NCc3ccccn3)sc2n1 [Example 154]
< 10 | COc1ccc(NC(=O)c2cc3c(-c4ccc(Cl)cc4Cl)nc(N)nc3s2)cc1 [Example 113]
< 10 | CCOC(=O)c1cc2c(-c3ccc(Cl)cc3Cl)nc(N)nc2s1 [Example 89]
< 10 | CCOC(=O)c1cc2c(-c3ccc(C#N)cc3)nc(N)nc2s1 [Example 16]
> 10 | CCOC(=O)c1cc2c(Nc3ccc4cn[nH]c4c3)nc(N)nc2s1 [Example 39]
> 10 | Cc1c(C(N)=O)sc2nc(N)nc(-c3ccccc3)c12 [Example 75, 2-Amino-5-methyl-4-phenyl-thieno[2,3-d]pyrimidine-6-carboxylic acid amide]
< 10 | CCNC(=O)c1cc2c(-c3cc(O)c(Cl)cc3Cl)nc(N)nc2s1 [Example 240]
> 10 | COC(=O)c1cc2c(NCc3ccccc3)nc(N)nc2s1 [Example 22, 2-Amino-4-benzylamino-thieno[2,3-d]pyrimidine-6-carboxylic acid methyl ester]
< 10 | Cc1ccc(-c2nc(N)nc3sc(C(=O)NCCCN(C)C)cc23)c(C)c1 [Example 83]
> 10 | COC(=O)c1cc2c(N(C)Cc3ccccc3)nc(N)nc2s1 [Example 23]

IC50 [µM] | Structure (SMILES)
< 10 | Nc1nc(-c2ccccc2)c2cc(C(=O)NCCc3cnc[nH]3)sc2n1 [Example 57]
< 10 | CCNC(=O)c1cc2c(-c3cc(C=O)ccc3C)nc(N)nc2s1 [Example 170]
< 10 | CN1CCC(NC(=O)c2cc3c(-c4ccc(Cl)cc4Cl)nc(N)nc3s2)CC1 [Example 137]
< 10 | Nc1nc(-c2ccc(Cl)cc2Cl)c2cc(C(=O)NCC(F)(F)F)sc2n1 [Example 134]
< 10 | CCCNCc1ccc(C)c(-c2nc(N)nc3sc(C(=O)NCC)cc23)c1 [Example 197, 2-Amino-4-(2-methyl-5-propylaminomethyl-phenyl)-thieno[2,3-d]pyrimidine-6-carboxylic acid ethylamide]
< 10 | C=C(c1ccc(Cl)cc1)c1nc(N)nc2sc(C(=O)OCC)cc12 [Example 280]
> 10 | CCOC(=O)c1cc2c(NC3CCCCC3)nc(N)nc2s1 [Example 24]
< 10 | CCNC(=O)c1cc2c(-c3cc(OCC(=O)N4CCOCC4)c(Cl)cc3Cl)nc(N)nc2s1 [Example 271]
< 10 | CCOC(=O)c1cc2c(C(=O)c3ccc(OC)c(OC)c3)nc(N)nc2s1 [Example 310]
< 10 | CCNC(=O)c1cc2c(-c3cccc(OCc4ccccc4)c3)nc(N)nc2s1 [Example 243]
< 10 | COc1ccc(CNC(=O)c2cc3c(-c4ccc(Cl)cc4Cl)nc(N)nc3s2)cc1 [Example 118]
> 10 | CCOC(=O)c1cc2c(-c3cccc4cccnc34)nc(N)nc2s1 [Example 100]
< 10 | CCOC(=O)c1cc2c(C(C)c3ccccc3)nc(N)nc2s1 (centres unmarked) [Example 285]
< 10 | CN1CCCC1CCNC(=O)c1cc2c(-c3ccc(Cl)cc3Cl)nc(N)nc2s1 (centres unmarked) [Example 157]
> 10 | CC=Cc1nc(N)nc2sc(C(=O)OCC)cc12 [Example 291]
< 10 | CCNC(=O)c1cc2c(-c3cc(CNCc4ccc(S(N)(=O)=O)cc4)ccc3C)nc(N)nc2s1 [Example 207]
> 10 | CCNC(=O)c1cc2c(OCc3ccccc3)nc(N)nc2s1 [Example 294]
> 10 | CCOC(=O)c1cc2c(-c3ccc(CN4CCCC4)cc3)nc(N)nc2s1 [Example 30]
< 10 | C=CCc1ccc(-c2nc(N)nc3sc(C(=O)NCC)cc23)c(C)c1 [Example 176]
< 10 | C=C(c1ccc(F)cc1)c1nc(N)nc2sc(C(=O)OCC)cc12 [Example 277]
< 10 | CCOC(=O)c1cc2c(C(=O)c3cccc(Cl)c3)nc(N)nc2s1 [Example 304]
< 10 | CCOC(=O)c1cc2c(-c3cc(OCc4ccccc4)c(Cl)cc3Cl)nc(N)nc2s1 [Example 239]
< 10 | Cc1ccc(-c2nc(N)nc3sc(C(=O)NCC(N)=O)cc23)c(C)c1 [Example 95]
< 10 | CCOC(=O)c1cc2c(-c3cc(C)c(Br)cc3C)nc(N)nc2s1 [Example 105]
> 10 | CCOC(=O)c1cc2c(-c3ccc(OCC(C)C)cc3C)nc(N)nc2s1 [Example 189]
< 10 | CCOC(=O)c1cc2c(-c3ccccc3)nc(N)nc2s1 [Example 1, 2-Amino-4-phenyl-thieno[2,3-d]pyrimidine-6-carboxylic acid ethyl ester]
< 10 | CCOC(=O)c1cc2c(-c3ccc(OCCCO)cc3C)nc(N)nc2s1 [Example 194]

Source: US8642594B2, “Substituted thieno[2,3-d]pyrimidines as HSP90 inhibitors” (Vernalis (R&D) Limited, priority 2003, dated 2014)
